Test results from patent US20200087340A1, “LIF/LIFR ANTAGONIST IN ONCOLOGY AND NONMALIGNANT DISEASES” (Evestra, Inc., priority 2018, published 2020).

How the values were obtained:
K-562 = assay: NCI-60 screening, Leukemia; type: cell-based, human
KM12 = assay: NCI-60 screening, Colon Cancer; type: cell-based, human
SF-268 = assay: NCI-60 screening, CNS Cancer; type: cell-based, human
SNB-19 = assay: NCI-60 screening, CNS Cancer; type: cell-based, human
U251 = assay: NCI-60 screening, CNS Cancer; type: cell-based, human
MALME-3M = assay: NCI-60 screening, Melanoma; type: cell-based, human
UACC-257 = assay: NCI-60 screening, Melanoma; type: cell-based, human
IGROV1 = assay: NCI-60 screening, Ovarian Cancer; type: cell-based, human
Procedure: Additional four, 10-fold or ½ log serial dilutions are made to provide a total of five drug concentrations plus control.
For adherent cells, the assay is terminated by the addition of cold TCA. Cells are fixed in situ by the gentle addition of 50 μl of cold 50% (w/v) TCA (final concentration, 10% TCA) and incubated for 60 minutes at 4° C. The supernatant is discarded, and the plates are washed five times with tap water and air dried. Sulforhodamine B (SRB) solution (100 μl) at 0.4% (w/v) in 1% acetic acid is added to each well, and plates are incubated for 10 minutes at room temperature. After staining, unbound dye is removed by washing five times with 1% acetic acid and the plates are air dried. […] Using the seven absorbance measurements [time zero, (Tz), control growth, (C), and test growth in the presence of drug at the five concentration levels (Ti)], the percentage growth is calculated at each of the drug concentrations levels. […]
Three dose response parameters are calculated for each experimental agent. […] The drug concentration resulting in total growth inhibition (TGI) is calculated from Ti=Tz. […] Values are calculated for each of these three parameters if the level of activity is reached; however, if the effect is not reached or is exceeded, the value for that parameter is expressed as greater or less than the maximum or minimum concentration tested.

MDA-MB-231 ATCC = assay: NCI-60 screening, Breast Cancer; type: cell-based, human
[1] = tested on: various cancer cells lines; assay: Cytotoxicity assays in various cancer cell lines; type: cell-based
[2] = tested on: Patient derived tumor (melanoma); assay: Immunohistochemistry analysis of treated patient derived tumor; type: cell-based, human; conditions: 10 nM and 1 uM for 5 days
Procedure: Patient derived tumor (melanoma) was treated with the compounds at 10 nM and 1 uM for 5 days in RPMI medium and harvested on day 6 using established protocol and immunohistochemistry was performed for different antibodies including p53, LIF, MDM2, pSTAT3, Ki67.

[3] = tested on: MDA-MB-231 (TNBC) Xenograft; assay: Tumor xenograft study, MDA-MB-231; type: in vivo, mice
Procedure: Uniform suspensions of human breast cancer MDA-MB-231 and human ovarian cancer IGROV1 cells (2×10^6) in 100 μL (0.02 carboxymethyl cellulose in phosphate buffered saline) were injected subcutaneously into the right and left flanks of 4- to 5-week-old female athymic nude mice (Charles River Laboratories). After 10 days, when the tumor […] reaches 100 mm^3, the mice were randomly allocated to 3 groups of each containing 6 animals. […] All drug was suspended in PBS followed by sonication (15 seconds with an intermittent interval of 5 seconds) for 1 minute. Tumors were allowed to reach palpability before drug intervention. Tumor size was measured every 3 days using digital Vernier Calipers and tumor volume was calculated using the ellipsoid formula [D×(d2)]/2, where D is the large diameter of the tumor and d represents the small diameter. On day 31, the mice were euthanized and tumors were harvested for protein and gene expression studies. […] FIG. 6B depicts a graph of tumor volume vs. time for the administration of EC300 at 2.5 mg/kg twice weekly in the MDA-MB-231 (TNBC) Xenograft. […] FIG. 7 depicts a graph of tumor volume vs. time for the administration of EC300 at 5 mg/kg 5 days per week in the IGROV1 (Ovarian) Xenograft. […] STAT3 phosphorylation is reduced in tumors that underwent treatment compared to control which is an indication of LIF downstream target.

MCF-7 cells = assay: P53 / MDM2 levels in MCF-7 cells; type: cell-based, human

C#CC(F)(F)[C@]1(O)CCC2C3CCC4=CC(=O)CCC4=C3C(c3ccc(C4CC4)cc3)C[C@@]21C (stereo partly drawn) [EC330, 17α-(1,1-difluoro-2-propyn-1-yl)-17β-hydroxy-11β-[4-p-(cyclopropyl)phenyl]estra-4,9-dien-3-one]
TGI (log10TGI) (K-562): >−4.00
TGI (log10TGI) (KM12): −5.91
TGI (log10TGI) (SF-268): −6.43
TGI (log10TGI) (SNB-19): >−4.00
TGI (log10TGI) (U251): −5.78
TGI (log10TGI) (MALME-3M): <−8.00
TGI (log10TGI) (UACC-257): >−4.00
TGI (log10TGI) (IGROV1): <−8.00
TGI (log10TGI) (MDA-MB-231 ATCC): −5.46
cytotoxicity (IC50's) in cytotoxicity assays [1]: low nanomolar
apoptosis, p53, MDM2, LIF mediated STAT3 phosphorylation (immunohistochemistry) [2]: induce apoptosis and restore p53 by inhibiting MDM2 and LIF mediated STAT3 phosphorylation
apoptosis in xenograft tumors ([3]; MDA-MB-231 breast cancer xenograft tumors): induced apoptosis dose dependently
tumor growth ([3]; human triple negative breast cancer (TNBC) model): significantly reduced
P53 levels / MDM2 (MCF-7 cells): restore P53 levels by inhibiting MDM2
